Reference: patent US9428533B2, “Inhibitors of advanced glycation end products” (NephroGenex, Inc., priority 2006, dated 2016)

What was measured:
[1] = Redox metal ion binding affinity, visible spectroscopic titration (Cu2+); conditions: visible spectroscopy, physiological pH; read-out: Cu^2+ Kd
Description: (§1) The AGE inhibition by these types of compounds is believed to occur when the compounds interfere with the role of the required redox metal ions in the oxidative breakdown of the Amadori intermediates to advanced glycation end products (“glycoxidation”). […] These spectral titrations usually involve adding varying amounts of compound to a fixed amount of metal ion in a suitable buffer having low metal ion affinity under physiological pH conditions. In cases of extreme affinity, binding constants were estimated in a competitive assay mode.
(§2) Binding affinity is measured as the dissociation constants Kd (units of concentration). All measurements were done by visible spectroscopy by monitoring the spectrum of the complex formed by each compound near its wavelength maximum, which depends on the metal ion being studied.

[2] = Redox metal ion binding affinity, visible spectroscopic titration (Fe2+); conditions: visible spectroscopy, 480 nm (430 nm for pyridoxamine); read-out: Fe^2+ Kd
Description: as §1, §2

[3] = Redox metal ion binding affinity, visible spectroscopic titration (Fe3+); conditions: visible spectroscopy, 480 nm (430 nm for pyridoxamine); read-out: Fe^3+ Kd
Description: as §1, §2

RNase-Amadori = test: Post-Amadori AGE/CML ELISA inhibition assay; type: biochemical; conditions: for IC50: 20 hours at 37° C.
Description: Using a novel modification of the AGE Inhibition assay, we have determined the post-Amadori AGE inhibition potency for compounds of interest. The experiments were designed to determine the half-maximal inhibitory concentration of compounds (“IC50 values”) for inhibiting the conversion of Amadori intermediates to advanced glycation end products. The post Amadori AGE/CML ELISA assay has been developed to a 384 well format for rapidly testing potential inhibitors prepared from DMSO stocks. Assay signal to background ratios are high, at greater than 20:1. Results in this format for AGE inhibitors agree well with previous data, providing some measure of method validation, making the assay is robust and reliable. Compounds for testing were dissolved at 100 mM or their maximum concentration in 100% DMSO. […] A subset of compounds were not fully soluble in DMSO at concentrations as low as 10 mM. […] When necessary, the activity of compounds was subsequently confirmed in a more thorough repeat test against AGE formation from both RNase Amadori and BSA Amadori. Typically, from DMSO stocks, two stock plates were made. Each well contained 50 μL.
The stock plate #2 was then frozen at −20° C. during preparation. Later, stock plate #2 was removed from the freezer and allowed to thaw for 30 minutes. The compounds in the plate were then mixed repeatedly with a pipettor and diluted 5× into 0.01 N HCl in H2O.
Further dilutions were then carried out spanning two orders of magnitude of concentration. After the compounds were diluted, 10 ul of phosphate buffer was added to each well and mixed to neutralize the solution before protein addition. Next 15 μL of 0.333 mg/mL of RNase-Amadori in phosphate buffer was added from a stock of ribose-RNAse prepared at 10.7 mg/mL. These constitute the AGE reaction mixtures. All AGE reactions proceeded for 20 hours at 37° C. Reactions were then diluted 50 fold into coating buffer by 10× then 5× serial dilution. Coating proceeded at 37° C. for two hours. Final protein was 0.1 μg/well in 384 well plates (2 μg/mL). ELISA was carried out similarly to before using the primary antibody BST-3CK at 1:10000 dilution, and the secondary antibody labeled with DELPHIA Europium GAR at 1:4000 dilution.

HepG2 cells = test: Cell based toxicity assay (MTT); conditions: fixed concentration 1 mM
Description: Hepatotoxicity is one of the major causes of drug failure in the clinic. HepG2 cells are human cells derived from a liver tumor, and express many of the proteins and detoxification pathways of normal hepatocytes, and so make a reasonable model for initial cellular toxicity testing of candidate compounds. The test is based on the active conversion of 3-[4,5-dimethylthiazol-2-yl]-2,5-dephenyltetrazolium bromide (MTT) by mitochondrial oxidation-reduction reactions into blue formazan crystals. Decreased crystal formation corresponds to decreased cell viability. Azide and chlorpromazine served as a positive controls
10×MTT stock solution (5 mg/ml MTT in 0.9% NaCl)
0.04 N HCl in isopropanol
Compound stocks: 100 mM in 100% DMSO
MTT working solution: diluting 10×MTT stock into culture medium.
Test article in cell culture medium; Final DMSO concentration on the cells varies with the compound concentration (Final concentration of solvents such as DMSO should be kept at or below 1%)
• 1. Aspirate culture medium from HepG2 cells. Replace culture medium with test article dissolved in culture medium. • 2. Incubate in 37° C., 5% CO2 incubator for 16-24 hours. • 3. Aspirate the medium from the cells; replace with an equal volume of 37° C. MTT working solution. • 4. Incubate for 3 hours. • 5. Replace MTT solution with an equal volume of acidified isopropanol. • 6. […] Read the absorbance of the solution at 570 nm. […]

male mice = conditions: mouse, in vivo, po
Protocol: A seven day repeat oral gavage study was carried out in male mice in order to detect any obvious signs of clinical toxicity upon administration of BST-605. For comparison, two groups were dosed with BST-4997 and BST-146 (acetyl ester of BST-4997 that is rapidly hydrolyzed to parent BST-4997). Dosing was done daily at 10, 30 and 100 mg/kg/day, and blood draws were taken at the end of study at 1, 2, 4 and 8 h post-dosing.

[4] = In vivo plasma concentration and metabolites (HPLC fluorescence, LC-MS/MS); conditions: for metabolites in plasma: mice plasma
Protocol: The plasma drawn from the mice in the above MTD study was examined by an HPLC fluorescence method for the presence of parent drug at different times as well as for the possible presence of metabolites. […] An HPLC fluorescence method was developed to assay for parent drugs and possible metabolites of each drug. The HPLC method was further adapted for LC-MS/MS study by changing from phosphoric acid to volatile 20 mM ammonium acetate.
Possible structures for the metabolites include the following: […]

[5] = tested on: streptozotocin (STZ)-diabetic rats; test: Efficacy study in STZ rat model of diabetic neuropathy (nerve conduction velocity); type: in vivo
Protocol: The STZ rat model has been described previously in WO 2004/019889. Our aim was to ascertain whether BST-605 treatment could correct nerve dysfunction in streptozotocin (STZ)-diabetic rats. Animals were made diabetic for 6 weeks, following which they were treated (n=6) for 2 weeks with BST-605 given in the drinking water at concentrations adjusted to correspond to doses of 0.22, 0.67 and 2.0 mg/kg/day. They were compared to control non-diabetic rats (n=10).
Motor NCV was tested between the sciatic notch and knee for the nerve branch to tibialis anterior muscle, as described in Cameron et al., Q. J. Exp. Physiol. 74:917-926 (1989); and Cameron et al, Exp. Neurol. 92:757-761 (1986).
Saphenous sensory NCV was measured between the groin and ankle.

[6] = Drug exposure in plasma of STZ rats at sacrifice; type: in vivo; conditions: lowest two doses
Protocol: A determination of drug exposure was also made from plasma collected from STZ rats at sacrifice that were dosed at the lowest two doses. […] The detection of parent drugs and metabolites in the STZ rat, as in the mice plasma, confirms that sufficient exposure to the drug occurred in the studies so as to make the toxicity findings and in vivo efficacy reflective of drug administration.

STZ rats = test: Tissue staining for carboxymethyllysine (CML) AGEs in nerve vasculature; type: in vivo; conditions: compared to diabetic controls
Description: This was done by quantitative measurements of tissue staining for carboxymethyllysine (CML) AGEs, using anti-CML antibodies.

[7] = STZ rats, 2 weeks in drinking water, 0.22, 0.67 and 2.0 mg/kg/day

SMILES	Kd [1] [µM]	Kd [2] [µM]	Kd [3] [µM]	Potency Relative to BST-4997 (RNase-Amadori)	potency over BST-4997 (RNase-Amadori) [fold]	potency over pyridoxamine (RNase-Amadori) [fold]	IC50 (RNase-Amadori) [µM]	acute toxicity in HepG2 cell viability (MTT) (HepG2 cells)	clinical toxicity in MTD study (male mice)	metabolites in plasma [4]	plasma concentration of parent drug versus dose ([4]; mice, plasma 1, 2, 4 and 8 h post-dosing, 10, 30 and 100 mg/kg/day)	diabetic complications in STZ rat model ([5]; STZ rat model)	restoration of nerve conduction velocity in motor (sciatic nerve) neurons [5, 7]	restoration of nerve conduction velocity in sensory (saphenous) neurons [5, 7]	drug exposure in plasma [6]	AGE (CML) staining in the nerve vasculature (STZ rats)
Cc1ncc(CN2CCN(C)CC2)c(-c2ncc[nH]2)c1O [BST-605]	0.13	720	520	6	6	50	100	no acute toxicity	no adverse clinical signs or gross examination findings	oxidized and/or undergone glucuronidation	proportional to dose	ameliorates diabetic complications	efficacy at very low concentrations	efficacy at very low concentrations	Drug exposure was observed and measured	–
Cc1ncc(CO)c(-c2ncc[nH]2)c1O [BST-4997, reference compound]	1.13	690	610	(1)	–	–	600	some evidence of toxicity	significant toxicity at and above 30 mg/kg/day	oxidized and/or undergone glucuronidation	–	–	–	–	–	significant decrease in AGE staining
Cc1ncc(CO)c(CN)c1O [Pyridoxamine, pyridoxamine, reference compound]	–	–	–	–	–	–	5000	–	–	–	–	–	–	–	–	–
